Measured values from patent US8889192B2, “Magnetic nanomedicine for inhibiting/treating human prostate cancer” (priority 2011, dated 2014).

Legend:
α-tubulin = assay: Content of α-tubulin in CWR22R cells, Western method; details: 10 μM, 24 hours, no magnetic field
[1] = tested on: human prostate cancer cells CWR22R; assay: Growth of CWR22R cells, XTT cell counting; format: cell-based; details: 10 μM, 48 hours, no magnetic field
Description: Cell cultivation: Place 150 μL of a mixture liquid containing 10000 human prostate cancer cells CW[…] into every well of a 96-well culture plate. […] Agent addition: 24 hours later, separately mix […] magnetic nanocomposite (600 μg/mL), Taxol, and […]/Taxol magnetic nanomedicine with a RPMI1640 medium to form mixed solutions. […] Cell counting: Remove RPMI1640 and add 120 μL of an XTT reaction liquid to the wells.

tubulin protein [2] = tested on: tubulin protein
[3] = tested on: human prostate cancer cells PC3; assay: Growth of PC3 cells, XTT cell counting; format: cell-based; details: 10 μM, 48 hours, no magnetic field
Description: Cell cultivation: Place 150 μL of a mixture liquid containing 10000 human prostate cancer cells PC3 into every well of a 96-well culture plate. […] Agent addition: 24 hours later, separately mix […] magnetic nanocomposite (600 μg/mL), Taxol, and […]/Taxol magnetic nanomedicine with a RPMI1640 medium to form mixed solutions. […] Cell counting: […]

tubulin protein [4] = assay: Stability analysis: residual activity by tubulin protein assay after storage; details: stored at 25° C. for 14 days

half-life (physchem): 19 h | half life (tubulin protein [2]): 32 h | activity after storage (tubulin protein [4]): has lost its activity
Compound: CC(=O)O[C@H]1C(=O)[C@@]2(C)[C@H]([C@H](OC(=O)c3ccccc3)[C@]3(O)C[C@H](OC(=O)[C@H](O)[C@@H](NC(=O)c4ccccc4)c4ccccc4)C(C)=C1C3(C)C)[C@]1(OC(C)=O)CO[C@@H]1C[C@@H]2O [Taxol]
α-tubulin inhibition ratio (α-tubulin): 52% | CWR22R growth-inhibition ratio [1]: 41% | PC3 growth-inhibition ratio [3]: 25%
